{"source": "patent US8999365B2", "about": "“Prevention of bacterial contamination” (priority 2005, dated 2015)", "key": {"[1]": {"experiment": "Physicochemical properties of delmopinol (pKa, solubility of base)"}, "[2]": {"system": "Staphylococcus epidermidis", "experiment": "Growth of adherent bacteria on treated surfaces in Tryptic Yeast Extract medium", "assay_type": "cell-based", "details": "for Growth after 1 day / Growth after 5 days: cell culture IV, Tryptic Yeast Extract medium, 37° C.", "protocol": "The ability of bacteria to grow on coated and non-coated surfaces was determined by adding 4 mL of Tryptic Yeast Extract medium to each well and incubating at 37° C."}, "[3]": {"system": "Staphylococcus epidermidis", "experiment": "Adhesion assay: total attached cells on delmopinol-coated discs", "details": "mean of Exp. I-III", "quoted_text": "The different materials were obtained as discs with an approximate diameter of 30 mm and a thickness of 1 mm. These discs were then mounted in the bottom of Petri dishes\n(§1) Procedure A: The test surfaces were treated with 2 mL of the 2% aqueous solution of delmopinol HCl and left unstirred for 15 minutes at room temperature. All delmopinol solution was removed with a pipette. The wells were then thoroughly rinsed three times with 4 mL of a potassium phosphate buffer, 10 mM, pH 7.2. […] Procedure B: The test surfaces were treated with 2 mL of the 2% aqueous solution of delmopinol HCl and left overnight to dry. Microorganisms\n(§2) A fresh bacterial strain of Staphylococcus epidermidis was isolated from skin and stored in milk powder at −80° C. The day before experimental use, bacteria were transferred to blood agar and incubated in an atmosphere of 95% H2 and 5% CO2 at 37° C. overnight. Colony-forming units were collected from the blood agar and suspended in 10 mM potassium phosphate buffer, pH 7.2, to an optical density at 600 nm of 0.4, corresponding to approximately 10^8 cells/mL.\nFour mL of the bacterial suspension was added on top of coated and non-coated test surfaces mounted in Petri dishes. […] A 10 μL-aliquot of the mixture was added to the surface and analysed after 10 min incubation in the dark. Microscopic images of adherent cells were analysed from 10 fields of each disc. […]"}, "[4]": {"system": "Staphylococcus epidermidis", "quoted_text": "as §1, §2\nThe bacterial viability of the bacterial suspension, indicated by the vitality percentages, was assessed by fluorescence microscopy using the Live/Dead Bacterial Viability method Molecular Probes, Inc. Eugene, Oreg., USA) according to the instructions of the manufacturer. Thus, SYTO 9 (1.5 μL) and propidium iodide (1.5 μL) were mixed with 1 mL of 10 mM phosphate buffer, pH 7.2. Aliquots of 10 μL were added to 10 μL cell suspension and analysed at 1000× for green/LIVE and red/DEAD cells in the fluorescence microscope (Leitz Aristoplan microscope equipped with a halogen lamp and a 470-490 nm excitation filter).\nFour mL of the bacterial suspension was added on top of coated and non-coated test surfaces mounted in Petri dishes. The cells were allowed to adhere for 60 min at 37° C. Non-adherent cells were removed by rinsing the surfaces three times with 4 mL of the buffer solution. […] A 10 μL-aliquot of the mixture was added to the surface and analysed after 10 min incubation in the dark. Microscopic images of adherent cells were analysed from 10 fields of each disc. […]"}, "[5]": {"details": "coated versus non-coated surfaces"}}, "data": [{"smiles": "CCCC(CCC)CCCC1COCCN1CCO", "note": "(stereo not shown) [delmopinol, 3-(4-propyl-heptyl)-4-(2-hydroxyethyl) morpholine]", "values": [{"measurement": "pKa", "setting": "[1]", "value": 7.1}, {"measurement": "growth of surface-associated bacteria (conclusion)", "setting": "[2]; [5]", "value": "significantly inhibited growth"}, {"measurement": "Growth after 1 day", "setting": "[2]; stainless steel coated", "value": "no"}, {"measurement": "Growth after 5 days", "setting": "[2]; stainless steel coated", "value": "no"}, {"measurement": "Growth after 1 day", "setting": "[2]; titanium coated", "value": "no"}, {"measurement": "Growth after 5 days", "setting": "[2]; titanium coated", "value": "no"}, {"measurement": "number of attached cells per mm^2, Mean", "setting": "[3]; stainless steel coated with 2% delmopinol HCl", "value": 418, "unit": "cells per mm^2"}, {"measurement": "number of attached cells per mm^2, Mean", "setting": "[3]; titanium coated with 2% delmopinol HCl", "value": 207, "unit": "cells per mm^2"}, {"measurement": "percentage viable cells, Mean", "setting": "[4]", "value": 9, "unit": "percentage"}, {"measurement": "viability of adherent cells on delmopinol-coated surfaces (conclusion)", "setting": "[4]; [5]", "value": "significant reduction"}]}]}
